From US9586961B2, “Homopiperazine derivatives as protein tyrosine kinase inhibitors and pharmaceutical use thereof” (LEO PHARMA A/S, priority 2010, dated 2017)

Key:
Format in all cases: biochemical
[1] = molecular target: T1, JAK1 (Homo sapiens, UniProt P23458); experiment: JAK1 kinase assay (HTRF, inhibition of phosphorylation of a synthetic peptide); conditions: catalytic domain aa 850-1154, GST-tag; 7 μM ATP (Km); read-out: JAK1 kinase inhibitory activity (EC50)
T1 construct: JAK1 (aa 850-1154) and TYK2 (aa 871-1187) are expressed with an N-terminally fused GST-tag; GST (N); purchased Carna Biosciences, Inc; host or cells: baculovirus expression system
T1 sequence (P23458 850-1154): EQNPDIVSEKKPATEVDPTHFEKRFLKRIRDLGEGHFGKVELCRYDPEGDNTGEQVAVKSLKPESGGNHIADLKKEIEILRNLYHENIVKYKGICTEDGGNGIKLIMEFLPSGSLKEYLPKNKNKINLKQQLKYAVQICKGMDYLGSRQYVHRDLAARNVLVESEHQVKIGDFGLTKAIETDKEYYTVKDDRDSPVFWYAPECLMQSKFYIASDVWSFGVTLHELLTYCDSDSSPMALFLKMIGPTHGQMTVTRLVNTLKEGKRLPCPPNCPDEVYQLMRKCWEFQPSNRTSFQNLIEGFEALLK
Outline: (§1)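 Baculovirus-expressed catalytic domains (GST-JAK1 aa 850-1154, GST-TYK2 aa 871-1187, His-JAK2, His-JAK3) phosphorylate 1 μM biotin-TK peptide 20-30 min at RT in 50 mM Hepes pH 7.0 with ATP at Km: JAK1 7 μM, JAK2 4 μM, JAK3 2 μM, TYK2 13 μM; 0.75% DMSO. Stopped with EDTA, HTRF read overnight.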

[2] = molecular target: T2, JAK2 (Homo sapiens, UniProt O60674); experiment: JAK2 kinase assay (HTRF, inhibition of phosphorylation of a synthetic peptide); conditions: catalytic domain, His-tag; 4 μM ATP (Km); read-out: JAK2 kinase inhibitory activity (EC50)
T2 construct: All four purified enzymes contain only the catalytic domain; His (N); purchased Carna Biosciences, Inc; host or cells: baculovirus expression system
T2 sequence (O60674 849-1124 limits assumed): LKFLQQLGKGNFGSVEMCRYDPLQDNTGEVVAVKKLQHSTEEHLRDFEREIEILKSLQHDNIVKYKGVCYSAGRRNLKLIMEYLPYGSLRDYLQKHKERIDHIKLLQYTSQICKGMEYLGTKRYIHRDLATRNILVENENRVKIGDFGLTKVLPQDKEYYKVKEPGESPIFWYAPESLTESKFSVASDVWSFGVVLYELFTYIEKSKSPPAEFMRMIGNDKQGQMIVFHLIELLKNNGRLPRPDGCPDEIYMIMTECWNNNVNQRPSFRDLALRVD
Outline: as §1

[3] = molecular target: T3, JAK3 (Homo sapiens, UniProt P52333); experiment: JAK3 kinase assay (HTRF, inhibition of phosphorylation of a synthetic peptide); conditions: catalytic domain, His-tag; 2 μM ATP (Km); read-out: JAK3 kinase inhibitory activity (EC50)
T3 construct: All four purified enzymes contain only the catalytic domain; His (N); purchased Carna Biosciences, Inc; host or cells: baculovirus expression system
T3 sequence (P52333 822-1111 limits assumed): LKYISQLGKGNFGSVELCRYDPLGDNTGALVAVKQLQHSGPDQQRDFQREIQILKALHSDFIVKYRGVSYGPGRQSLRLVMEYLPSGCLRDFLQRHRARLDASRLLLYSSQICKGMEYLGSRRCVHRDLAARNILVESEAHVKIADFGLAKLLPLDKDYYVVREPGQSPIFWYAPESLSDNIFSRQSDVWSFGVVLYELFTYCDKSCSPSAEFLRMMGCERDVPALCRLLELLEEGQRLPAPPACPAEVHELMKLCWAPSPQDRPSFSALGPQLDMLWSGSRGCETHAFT
Outline: as §1

[4] = molecular target: T4, TYK2 (Homo sapiens, UniProt P29597); experiment: TYK2 kinase assay (HTRF, inhibition of phosphorylation of a synthetic peptide); conditions: catalytic domain aa 871-1187, GST-tag; 13 μM ATP (Km); read-out: TYK2 kinase inhibitory activity (EC50)
T4 construct: JAK1 (aa 850-1154) and TYK2 (aa 871-1187) are expressed with an N-terminally fused GST-tag; GST (N); purchased Carna Biosciences, Inc; host or cells: baculovirus expression system
T4 sequence (P29597 871-1187): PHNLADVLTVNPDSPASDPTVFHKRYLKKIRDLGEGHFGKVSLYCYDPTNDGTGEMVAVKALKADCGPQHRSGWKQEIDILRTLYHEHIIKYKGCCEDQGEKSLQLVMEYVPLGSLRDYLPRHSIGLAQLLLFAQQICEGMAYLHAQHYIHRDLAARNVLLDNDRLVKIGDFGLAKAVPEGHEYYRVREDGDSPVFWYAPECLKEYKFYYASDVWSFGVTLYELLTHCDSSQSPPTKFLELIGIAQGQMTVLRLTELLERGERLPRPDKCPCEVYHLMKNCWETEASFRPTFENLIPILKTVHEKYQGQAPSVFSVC
Protocol: JAK1, JAK2, JAK3 and TYK2 Kinase Assays:
Human baculovirus-expressed JAK1, 2, 3 and TYK2 were purchased from Carna Biosciences, Inc. All four purified enzymes contain only the catalytic domain. JAK1 (aa 850-1154) and TYK2 (aa 871-1187) are expressed with an N-terminally fused GST-tag, and JAK2 and JAK3 with an N-terminally fused His-tag. Inhibition of phosphorylation of a synthetic peptide was measured in an HTRF-based assay using the TK substrate-Biotin from the CisbioHTRFKinEASE TK kit. First, 2 μl of TK solution (TK substrate-biotin in kinase buffer [1× enzymatic buffer from HTRFKinEASE TK kit, 1 mM DTT]) is added to a plate containing 1 μl prediluted compound (final assay concentration DMSO: 0.75%). Then, 5 μl kinase-ATP mix (prepared in kinase buffer) is added to the wells and the plates are incubated at RT for 20-30 min. For all four kinases a concentration of ATP that corresponded to the Km for ATP was used. The final concentrations of buffers, substrate, kinase and ATP were: JAK1: 50 mMHepes buffer pH 7.0, 0.01% BSA, 10 mM MgCl2, 1 mM DTT, 7 μM ATP, 50 nMSEB, 1 μM TK Substrate-Biotin and 5 ng JAK1; JAK2: 50 mM Hepes buffer pH 7.0, 0.01% BSA, 5 mM MgCl2, 1 mM DTT, 4 μM ATP, 1 μM TK Substrate-Biotin and 0.1 ng JAK2; JAK3: 50 mMHepes buffer pH 7.0, 0.01% BSA, 5 mM MgCl2, 1 mM DTT, 2 μM ATP, 1 μM TK Substrate-Biotin and 0.3 ng JAK3; TYK2: 50 mMHepes buffer pH 7.0, 0.01% BSA, 5 mM MgCl2, 1 mM DTT, 13 μM ATP, 50 nMSEB, 1 μM TK Substrate-Biotin and 0.8 ng TYK2. Thereafter, the kinase reaction is stopped by adding 4 μl detection mix (final concentrations: 50 mM Hepes buffer pH 7.0, 0.01% BSA, 0.8 M KF, 20 mM EDTA, 42 nM Streptavidin-XL665 and 1:400 STKAbCryptate) and the plates are incubated overnight in the dark. The HTRF signal is read using an Envision plate reader.

| SMILES | EC50 [1] [nM] | EC50 [2] [nM] | EC50 [3] [nM] | EC50 [4] [nM] |
| --- | --- | --- | --- | --- |
| NS(=O)(=O)c1cc(C(=O)N2CCN(c3ncnc4[nH]ccc34)CC3(CC3)C2)cs1 [Example 75] | < 100 | < 100 | 100 to 1000 | 100 to 1000 |
| N#CC1(C(=O)N2CCN(c3ncnc4[nH]ccc34)CC3(CC3)C2)CCCC1 [Example 40, 1-[5-(7H-pyrrolo[2,3-d]pyrimidin-4-yl)-5,8-diazaspiro[2.6]nonane-8-carbonyl]cyclopentanecarbonitrile] | > 1000 | 100 to 1000 | 100 to 1000 | > 1000 |
| CCCCN1CCN(c2ncnc3[nH]ccc23)CC2(CC2)C1 [Example 279, 4-(5-butyl-5,8-diazaspiro[2.6]nonan-8-yl)-7H-pyrrolo[2,3-d]pyrimidine] | > 1000 | > 1000 | > 1000 | > 1000 |
| Cc1ccc(C(=O)N2CCN(c3ncnc4[nH]ccc34)CC3(CC3)C2)cc1S(N)(=O)=O [Example 38, 2-methyl-5-[5-(7H-pyrrolo[2,3-d]pyrimidin-4-yl)-5,8-diazaspiro[2.6]nonane-8-carbonyl]benzenesulfonamide] | < 100 | < 100 | 100 to 1000 | 100 to 1000 |
| N#CCCC(=O)N1CCN(c2ncnc3[nH]ccc23)CC2(CC2)C1 [Example 1, 4-Oxo-4-[8-(7H-pyrrolo[2,3-d]pyrimidin-4-yl)-5,8-diazaspiro[2.6]non-5-yl]butyronitrile] | < 100 | < 100 | 100 to 1000 | 100 to 1000 |
| O=C(c1cc2ccccc2s1)N1CCN(c2ncnc3[nH]ccc23)CCC12CC2 [Example 46, benzothiophen-2-yl-[6-(7H-pyrrolo[2,3-d]pyrimidin-4-yl)-6,9-diazaspiro[2.6]nonan-9-yl]methanone] | 100 to 1000 | 100 to 1000 | > 1000 | > 1000 |
| c1nc(N2CCNCC3(CC3)C2)c2cc[nH]c2n1 [Example 290] | > 1000 | > 1000 | > 1000 | > 1000 |
| NS(=O)(=O)c1ccc(CCC(=O)N2CCN(c3ncnc4[nH]ccc34)CC3(CC3)C2)cc1 [Example 34, 4-[3-oxo-3-[5-(7H-pyrrolo[2,3-d]pyrimidin-4-yl)-5,8-diazaspiro[2.6]nonan-8-yl]propyl]benzenesulfonamide] | < 100 | < 100 | < 100 | 100 to 1000 |
| CS(=O)(=O)Nc1ccc(C(=O)N2CCN(c3ncnc4[nH]ccc34)CC3(CC3)C2)cc1 [Example 102, N-[4-[5-(7H-pyrrolo[2,3-d]pyrimidin-4-yl)-5,8-diazaspiro[2.6]nonane-8-carbonyl]phenyl]methanesulfonamide] | 100 to 1000 | 100 to 1000 | 100 to 1000 | > 1000 |
| O=C(c1ccsn1)N1CCCN(c2ncnc3[nH]ccc23)CC12CC2 [Example 201, isothiazol-3-yl-[5-(7H-pyrrolo[2,3-d]pyrimidin-4-yl)-5,9-diazaspiro[2.6]nonan-9-yl]methanone] | < 100 | < 100 | 100 to 1000 | 100 to 1000 |
| N#Cc1csc(C(=O)N2CCN(c3ncnc4[nH]ccc34)CC3(CC3)C2)c1 [Example 19, 5-[5-(7H-pyrrolo[2,3-d]pyrimidin-4-yl)-5,8-diazaspiro[2.6]nonane-8-carbonyl]thiophene-3-carbonitrile] | 100 to 1000 | < 100 | 100 to 1000 | > 1000 |
| O=C(c1cc2ccccc2s1)N1CCN(c2ncnc3[nH]ccc23)CC2(CC2)C1 [Example 18, benzothiophen-2-yl-[5-(7H-pyrrolo[2,3-d]pyrimidin-4-yl)-5,8-diazaspiro[2.6]nonan-8-yl]methanone] | < 100 | 100 to 1000 | 100 to 1000 | > 1000 |
| O=C(c1ccc(S(=O)(=O)NCC2CCCO2)cc1)N1CCN(c2ncnc3[nH]ccc23)CC2(CC2)C1 (centres unmarked) [Example 70] | 100 to 1000 | 100 to 1000 | 100 to 1000 | > 1000 |
| COc1cc(OC)cc(C(=O)N2CCN(c3ncnc4[nH]ccc34)CC3(CC3)C2)c1 [Example 43, (3,5-dimethoxyphenyl)-[5-(7H-pyrrolo[2,3-d]pyrimidin-4-yl)-5,8-diazaspiro[2.6]nonan-8-yl]methanone] | > 1000 | > 1000 | > 1000 | > 1000 |
| Cc1ccc(CC(=O)N2CCN(c3ncnc4[nH]ccc34)CC3(CC3)C2)cc1 [Example 263] | < 100 | < 100 | 100 to 1000 | 100 to 1000 |

More lines, now with the values ahead:

| EC50 [1] [nM] | EC50 [2] [nM] | EC50 [3] [nM] | EC50 [4] [nM] | SMILES |
| --- | --- | --- | --- | --- |
| < 100 | < 100 | < 100 | 100 to 1000 | NS(=O)(=O)c1ccc(CC(=O)N2CCN(c3ncnc4[nH]ccc34)CC3(CC3)C2)cc1 [Example 20, 4-[2-oxo-2-[5-(7H-pyrrolo[2,3-d]pyrimidin-4-yl)-5,8-diazaspiro[2.6]nonan-8-yl]ethyl]benzenesulfonamide] |
| 100 to 1000 | < 100 | 100 to 1000 | > 1000 | NS(=O)(=O)c1ccc(C(=O)N2CCN(c3ncnc4[nH]ccc34)CC3(CC3)C2)o1 [Example 37, 5-[5-(7H-pyrrolo[2,3-d]pyrimidin-4-yl)-5,8-diazaspiro[2.6]nonane-8-carbonyl]furan-2-sulfonamide] |
| 100 to 1000 | 100 to 1000 | > 1000 | > 1000 | CC(=O)N1CCC(C(=O)N2CCN(c3ncnc4[nH]ccc34)CC3(CC3)C2)CC1 [Example 6, 1-{4-[8-(7H-pyrrolo[2,3-d]pyrimidin-4-yl)-5,8-diazaspiro[2.6]nonane-5-carbonyl]piperidin-1-yl}ethanone] |
| < 100 | < 100 | 100 to 1000 | > 1000 | S=C(Nc1ccccc1)N1CCCN(c2ncnc3[nH]ccc23)CC12CC2 [Example 91, N-phenyl-5-(7H-pyrrolo[2,3-d]pyrimidin-4-yl)-5,9-diazaspiro[2.6]nonane-9-carbothioamide] |
| > 1000 | > 1000 | > 1000 | > 1000 | CCCCC(=O)Nc1nc(N2CCN(Cc3ccccc3)CC3(CC3)C2)c2cc[nH]c2n1 [Example 282, N-[4-(5-benzyl-5,8-diazaspiro[2.6]nonan-8-yl)-7H-pyrrolo[2,3-d]pyrimidin-2-yl]pentanamide] |
| < 100 | < 100 | 100 to 1000 | 100 to 1000 | N#Cc1csc(C(=O)N2CCCN(c3ncnc4[nH]ccc34)CC23CC3)c1 [Example 119, 5-[5-(7H-pyrrolo[2,3-d]pyrimidin-4-yl)-5,9-diazaspiro[2.6]nonane-9-carbonyl]thiophene-3-carbonitrile] |
| < 100 | < 100 | 100 to 1000 | 100 to 1000 | Cc1cc(C(=O)N2CCCN(c3ncnc4[nH]ccc34)CC23CC3)no1 [Example 141] |
| > 1000 | > 1000 | > 1000 | > 1000 | c1nc(N2CCNC3(CC2)CC3)c2cc[nH]c2n1 [Example 291] |
